Experimental data: ChEMBL document CHEMBL5380814, “Targeting Receptor-Interacting Protein Kinase 1 by Novel Benzothiazole Derivatives: Treatment of Acute Lung Injury through the Necroptosis Pathway” (J Med Chem, 2023)
The source made the active and inactive calls. No cut-off for these calls is given here.

Assays:
L929 = assay: Anti-necroptotic activity in mouse L929 cells assessed as inhibition of mouse TNFalpha/Z-VAD-FMK induced necroptosis preincubated with compound for 16 to 24 hrs followed by TZ stimulation for 12 hrs measured by cell-titre glo luminescent cell viability assay; format: functional, cell-based; conditions: dose 6.3-800 nM, time 28-36 hrs
Mus musculus [1] = assay: In vivo anti-inflammatory activity in NNK induced induced C57BL/6J ALI mouse model assessed as decrease in lung IL-6 mRNA level pretreated at 25 to 100 mg/kg, ip for 1 hr followed by NNK administration; format: functional, organism-based; conditions: dose 25-100 mg/kg
HT-29 [2] = assay: Anti-necroptotic activity in human HT-29 cells assessed as protection against human TNFalpha/Smac mimetic induced necroptosis preincubated with compound upto 10 uM for 16 to 24 hrs followed by TS stimulation for 36 hrs measured by cell-titre glo luminescent cell viability assay; format: functional, cell-based; conditions: time 52-60 hrs
HT-29 [3] = assay: Cytotoxicity against human HT-29 cells incubated at 100 uM for 16 to 24 hrs measured by cell-titre glo luminescent cell viability assay; format: functional, cell-based; conditions: time 16-24 hrs
HT-29 [4] = assay: Anti-necroptotic activity in human HT-29 cells assessed as protection against human TNFalpha/cycloheximide induced necroptosis preincubated with compound upto 10 uM for 16 to 24 hrs followed by TC stimulation for 24 hrs measured by cell-titre glo luminescent cell viability assay; format: functional, cell-based; conditions: time 40-48 hrs
Mus musculus [5] = assay: In vivo anti-inflammatory activity in NNK induced induced C57BL/6J ALI mouse model assessed as intact alveolar structure in lung pretreated at 25 to 100 mg/kg, ip for 1 hr followed by NNK administration by HE staining analysis; format: functional, organism-based; conditions: dose 25-100 mg/kg
[6] = target: T1, Mixed lineage kinase domain-like protein (Homo sapiens) (UniProt Q8NB16); assay: Inhibition of MLKL phosphorylation in TSZ-induced human HT-29 cells assessed as blocking of TSZ-induced necrosome formation at 1 uM pretreated with compound for 0 to 6 hrs followed by TSZ stimulation for 6 hrs measured by Western analysis; format: cell-based; conditions: time 6-12 hrs
T1 sequence (whole entry): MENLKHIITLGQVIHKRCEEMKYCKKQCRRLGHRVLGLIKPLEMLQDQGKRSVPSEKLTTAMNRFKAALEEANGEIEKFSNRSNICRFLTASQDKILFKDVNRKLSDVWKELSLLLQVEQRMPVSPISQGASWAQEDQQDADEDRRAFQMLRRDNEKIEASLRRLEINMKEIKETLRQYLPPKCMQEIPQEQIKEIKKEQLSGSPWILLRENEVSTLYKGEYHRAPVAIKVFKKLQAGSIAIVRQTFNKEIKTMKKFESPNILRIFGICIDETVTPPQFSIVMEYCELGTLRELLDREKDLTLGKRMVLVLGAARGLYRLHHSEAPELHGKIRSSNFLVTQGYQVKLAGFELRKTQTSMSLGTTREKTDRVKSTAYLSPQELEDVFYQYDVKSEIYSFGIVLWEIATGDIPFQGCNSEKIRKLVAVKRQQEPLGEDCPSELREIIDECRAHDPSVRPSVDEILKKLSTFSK

Mus musculus [7] = assay: In vivo anti-necrotoptic activity in NNK induced induced C57BL/6J ALI mouse model assessed as reduction in RIPK1 phosphorylation pretreated at 100 mg/kg, ip for 1 hr followed by NNK administration; format: functional; design: scale not given: the % may be the effect or the level left

For CCS(=O)(=O)NC1CCC(C(=O)Nc2nc3cc(F)c(Oc4ccc(F)c(NC(=O)Cc5cccc(C(F)(F)F)c5)c4)cc3s2)CC1 (stereo not drawn), the Activity (L929) was “Dose-Dependent Effect”, the Activity (Mus musculus [1]) was “Active” and the Activity (HT-29 [2]) was “inactive”. For the same compound, the Activity (HT-29 [3]) was “Active”, the Activity (HT-29 [4]) was “inactive” and the Activity (Mus musculus [5]) was “Active”. For the same compound, the inhibition [6] was “Active” and the Activity (Mus musculus [7]) was 100%.
